Test results taken from patent US10597388B2, “Pyridazinone herbicides” (FMC CORPORATION, priority 2014, dated 2020).

Assays:
Assay type in all cases: in vivo
[1] = tested on: blackgrass (Alopecurus myosuroides); assay: Test A greenhouse herbicide test, postemergence; settings: for Blackgrass plant response rating: 0 to 100 scale, 0 is no effect, 100 is complete control
From the text: (§1) At the same time, plants selected from these crop and weed species and also blackgrass (Alopecurus myosuroides), and galium (catchweed bedstraw, Galium aparine) were planted in pots containing the same blend of loam soil and sand and treated with postemergence applications of test chemicals formulated in the same manner. Plants ranged in height from 2 to 10 cm and were in the one- to two-leaf stage for the postemergence treatment. Treated plants and untreated controls were maintained in a greenhouse for approximately 10 d, after which time all treated plants were compared to untreated controls and visually evaluated for injury. Plant response ratings, summarized in Table A, are based on a 0 to 100 scale where 0 is no effect and 100 is complete control. A dash (-) response means no test result.

[2] = tested on: galium (catchweed bedstraw, Galium aparine); assay: Test A greenhouse herbicide test, postemergence; settings: for Galium plant response rating: 0 to 100 scale, 0 is no effect, 100 is complete control
From the text: as §1

[3] = tested on: foxtail, giant (giant foxtail, Setaria faberii); assay: Test A greenhouse herbicide test, pre- and postemergence
From the text: (§2) Seeds of plant species selected from barnyardgrass (Echinochloa crus-galli), kochia (Kochia scoparia), ragweed (common ragweed, Ambrosia elatior), ryegrass, Italian (Italian ryegrass, Lolium multiflorum), crabgrass, large (large crabgrass, Digitaria sanguinalis), foxtail, giant (giant foxtail, Setaria faberii), momingglory (Ipomoea spp.), pigweed (Amaranthus retroflexus), velvetleaf (Abutilon theophrasti), wheat (Triticum aestivum), and corn (Zea mays) were planted into a blend of loam soil and sand and treated preemergence with a directed soil spray using test chemicals formulated in a non-phytotoxic solvent mixture which included a surfactant.
as §1

[4] = tested on: corn (Zea mays); assay: as above; settings: Postemergence; for Corn plant response rating: 0 to 100 scale, 0 is no effect, 100 is complete control
From the text: as §2, §1

[5] = tested on: kochia (Kochia scoparia); assay: as above
From the text: as §2, §1

[6] = tested on: ragweed (common ragweed, Ambrosia elatior); assay: as above
From the text: as §2, §1

[7] = tested on: pigweed (Amaranthus retroflexus); assay: as above
From the text: as §2, §1

[8] = tested on: barnyardgrass (Echinochloa crus-galli); assay: as above
From the text: as §2, §1

[9] = tested on: wheat (Triticum aestivum); assay: as above; settings: Postemergence; for Wheat plant response rating: 0 to 100 scale, 0 is no effect, 100 is complete control
From the text: as §2, §1

[10] = tested on: ryegrass, Italian (Italian ryegrass, Lolium multiflorum); assay: as above
From the text: as §2, §1

[11] = 125 g ai/ha, 0 to 100 scale where 0 is no effect and 100 is complete control
[12] = Postemergence, 125 g ai/ha, 0 to 100 scale where 0 is no effect and 100 is complete control
[13] = Postemergence, 500 g ai/ha, 0 to 100 scale, 0 is no effect, 100 is complete control
[14] = Preemergence, 125 g ai/ha, 0 to 100 scale where 0 is no effect and 100 is complete control
[15] = Preemergence, 500 g ai/ha, 0 to 100 scale, 0 no effect, 100 complete control
[16] = Preemergence, 500 g ai/ha, 0 to 100 scale where 0 is no effect and 100 is complete control
[17] = 500 g ai/ha, visual rating after approx. 10 d, 0 to 100 scale (0 no effect, 100 complete control)
[18] = Postemergence, 500 g ai/ha, visual rating after approx. 10 d, 0 to 100 scale (0 no effect, 100 complete control)
[19] = Postemergence, 1000 g ai/ha, 0 to 100 scale, 0 is no effect, 100 is complete control
[20] = Preemergence, 1000 g ai/ha, 0 to 100 scale, 0 no effect, 100 complete control

Compound: CCc1ccc2ccccc2c1-c1c(OC(=O)OC(C)C)c(C)nn(C)c1=O [Compound 39]
- Plant response rating, Blackgrass [1, 11]: 30
- Blackgrass plant response rating ([1]; 500 g ai/ha): 70
- Plant response rating, Galium [2, 11]: 90
- Galium plant response rating ([2]; 500 g ai/ha): 100
- Plant response rating, Foxtail, Giant [3, 12]: 0
- Foxtail, Giant plant response rating [3, 13]: 60
- Foxtail, Giant plant response rating [3, 14]: 0
- Plant response rating, Foxtail, Giant [3, 15]: 60
- Plant response rating, Corn [4, 11]: 0
- Corn plant response rating ([4]; 500 g ai/ha): 0
- Plant response rating, Kochia [5, 12]: 30
- Kochia plant response rating [5, 13]: 30
- Kochia plant response rating [5, 14]: 0
- Plant response rating, Kochia [5, 15]: 0
- Plant response rating, Ragweed [6, 12]: 50
- Ragweed plant response rating [6, 13]: 90
- Ragweed plant response rating [6, 14]: 10
- Plant response rating, Ragweed [6, 15]: 70
- Plant response rating, Pigweed [7, 12]: 50
- Pigweed plant response rating [7, 13]: 80
- Pigweed plant response rating [7, 14]: 80
- Plant response rating, Pigweed [7, 15]: 80
- Plant response rating, Barnyardgrass [8, 12]: 0
- Barnyardgrass plant response rating [8, 13]: 10
- Barnyardgrass plant response rating [8, 14]: 0
- Plant response rating, Barnyardgrass [8, 15]: 10
- Plant response rating, Wheat [9, 11]: 0
- Wheat plant response rating ([9]; 500 g ai/ha): 10
- Plant response rating, Ryegrass, Italian [10, 12]: 90
- Ryegrass, Italian plant response rating [10, 13]: 60
- Ryegrass, Italian plant response rating [10, 14]: 40
- Plant response rating, Ryegrass, Italian [10, 15]: 50

Compound: Cc1ccc2ccccc2c1-c1c(OC(=O)C2CC2)c(C)nn(C)c1=O [Compound 76]
- Plant response rating, Blackgrass [1, 11]: 0
- Blackgrass plant response rating ([1]; 500 g ai/ha): 10
- Plant response rating, Galium [2, 11]: 70
- Galium plant response rating ([2]; 500 g ai/ha): 80
- Plant response rating, Foxtail, Giant [3, 12]: 0
- Foxtail, Giant plant response rating [3, 13]: 20
- Foxtail, Giant plant response rating [3, 14]: 0
- Plant response rating, Foxtail, Giant [3, 16]: 20
- Plant response rating, Corn [4, 11]: 0
- Corn plant response rating ([4]; 500 g ai/ha): 0
- Plant response rating, Kochia [5, 12]: 20
- Kochia plant response rating [5, 13]: 40
- Kochia plant response rating [5, 14]: 0
- Plant response rating, Kochia [5, 16]: 0
- Plant response rating, Ragweed [6, 12]: 0
- Ragweed plant response rating [6, 13]: 20
- Ragweed plant response rating [6, 14]: 0
- Plant response rating, Ragweed [6, 16]: 50
- Plant response rating, Pigweed [7, 12]: 10
- Pigweed plant response rating [7, 13]: 20
- Pigweed plant response rating [7, 14]: 20
- Plant response rating, Pigweed [7, 16]: 50
- Plant response rating, Barnyardgrass [8, 12]: 0
- Barnyardgrass plant response rating [8, 13]: 30
- Barnyardgrass plant response rating [8, 14]: 0
- Plant response rating, Barnyardgrass [8, 15]: 30
- Plant response rating, Wheat [9, 11]: 0
- Wheat plant response rating ([9]; 500 g ai/ha): 0
- Plant response rating, Ryegrass, Italian [10, 12]: 40
- Ryegrass, Italian plant response rating [10, 13]: 80
- Ryegrass, Italian plant response rating [10, 14]: 50
- Plant response rating, Ryegrass, Italian [10, 16]: 70

Compound: COc1nn(C)c(=O)c(-c2c(C)sc3ccccc23)c1OC(C)=O [Compound 141]
- Plant response rating, Blackgrass [1, 11]: 0
- Plant response rating, Blackgrass [1, 17]: 50
- Plant response rating, Galium [2, 11]: 70
- Plant response rating, Galium [2, 17]: 90
- Plant response rating, Foxtail, Giant [3, 12]: 20
- Plant response rating, Foxtail, Giant [3, 18]: 70
- Foxtail, Giant plant response rating [3, 14]: 30
- Plant response rating, Foxtail, Giant [3, 16]: 70
- Plant response rating, Corn [4, 11]: 0
- Plant response rating, Corn [4, 17]: 0
- Plant response rating, Kochia [5, 12]: 10
- Plant response rating, Kochia [5, 18]: 30
- Kochia plant response rating [5, 14]: 0
- Plant response rating, Kochia [5, 16]: 60
- Plant response rating, Ragweed [6, 12]: 60
- Plant response rating, Ragweed [6, 18]: 40
- Plant response rating, Ragweed [6, 16]: 60
- Plant response rating, Pigweed [7, 12]: 0
- Plant response rating, Pigweed [7, 18]: 30
- Pigweed plant response rating [7, 14]: 40
- Plant response rating, Pigweed [7, 16]: 60
- Plant response rating, Barnyardgrass [8, 12]: 20
- Plant response rating, Barnyardgrass [8, 18]: 50
- Barnyardgrass plant response rating [8, 14]: 50
- Plant response rating, Barnyardgrass [8, 16]: 90
- Plant response rating, Wheat [9, 11]: 0
- Plant response rating, Wheat [9, 17]: 0
- Plant response rating, Ryegrass, Italian [10, 12]: 70
- Plant response rating, Ryegrass, Italian [10, 18]: 90
- Plant response rating, Ryegrass, Italian [10, 16]: 80

Compound: CC(=O)COc1c(C)nn(C)c(=O)c1-c1cccc2ccccc12 [Compound 178]
- Blackgrass plant response rating ([1]; 1000 g ai/ha): 30
- Galium plant response rating ([2]; 1000 g ai/ha): 70
- Foxtail, Giant plant response rating [3, 19]: 0
- Plant response rating, Foxtail, Giant [3, 20]: 0
- Corn plant response rating ([4]; 1000 g ai/ha): 0
- Kochia plant response rating [5, 19]: 10
- Plant response rating, Kochia [5, 20]: 0
- Ragweed plant response rating [6, 19]: 60
- Plant response rating, Ragweed [6, 20]: 0
- Pigweed plant response rating [7, 19]: 70
- Plant response rating, Pigweed [7, 20]: 0
- Barnyardgrass plant response rating [8, 19]: 0
- Plant response rating, Barnyardgrass [8, 20]: 0
- Wheat plant response rating ([9]; 1000 g ai/ha): 0
- Ryegrass, Italian plant response rating [10, 19]: 70
- Plant response rating, Ryegrass, Italian [10, 20]: 60

Compound: COC(=O)COc1c(C)nn(C)c(=O)c1-c1cccc2ccccc12 [Compound 182]
- Blackgrass plant response rating ([1]; 1000 g ai/ha): 10
- Galium plant response rating ([2]; 1000 g ai/ha): 50
- Foxtail, Giant plant response rating [3, 19]: 0
- Plant response rating, Foxtail, Giant [3, 20]: 0
- Corn plant response rating ([4]; 1000 g ai/ha): 0
- Kochia plant response rating [5, 19]: 0
- Plant response rating, Kochia [5, 20]: 0
- Ragweed plant response rating [6, 19]: 30
- Plant response rating, Ragweed [6, 20]: 0
- Pigweed plant response rating [7, 19]: 0
- Plant response rating, Pigweed [7, 20]: 0
- Barnyardgrass plant response rating [8, 19]: 0
- Plant response rating, Barnyardgrass [8, 20]: 0
- Wheat plant response rating ([9]; 1000 g ai/ha): 0
- Ryegrass, Italian plant response rating [10, 19]: 0
- Plant response rating, Ryegrass, Italian [10, 20]: 0
